# Patent US20070161637A1, “Substituted pyridin-2-ylamine analogues” (Neurogen Corporation, priority 2003, published 2007)
# Target: T1, human capsaicin receptor (Homo sapiens, UniProt Q8NER1)
# T1 construct: transfected with the pBK-CMV expression construct encoding the full length human capsaicin receptor; expressed in transfected cells; host or cells: HEK293, stably transfected clonal lines, plasmid pBK-CMV
# Experiment: Calcium mobilization assay, determination of antagonist activity (Example 6)
# Assay type: cell-based
# Conditions: concentration giving 50% decrease in the fluorescence response of cells expressing human capsaicin receptor exposed to capsaicin
# Experimental: A cDNA encoding full length human capsaicin receptor (SEQ ID NO:1, 2 or 3 of U.S. Pat. No. 6,482,611) was subcloned in the plasmid pBK-CMV (Stratagene, La Jolla, Calif.) for recombinant expression in mammalian cells.
# Human embryonic kidney (HEK293) cells were transfected with the pBK-CMV expression construct encoding the full length human capsaicin receptor using standard methods. The transfected cells were selected for two weeks in media containing G418 (400 μg/ml) to obtain a pool of stably transfected cells. Independent clones were isolated from this pool by limiting dilution to obtain clonal stable cell lines for use in subsequent experiments.
# Cells transfected with expression plasmids (as described in Example 4) and thereby expressing human capsaicin receptor are seeded and grown to 70-90% confluency in FALCON black-walled, clear-bottomed 96-well plates (#3904, BECTON-DICKINSON, Franklin Lakes, N.J.). The culture medium is emptied from the 96 well plates and FLUO-3 AM calcium sensitive dye (Molecular Probes, Eugene, Oreg.) is added to each well (dye solution: 1 mg FLUO-3 AM, 440 μL DMSO and 440 μl 20% pluronic acid in DMSO, diluted 1:250 in Krebs-Ringer HEPES (KRH) buffer (25 mM HEPES, 5 mM KCl, 0.96 mM NaH2PO4, 1 mM MgSO4, 2 mM CaCl2, 5 mM glucose, 1 mM probenecid, pH 7.4), 50 μl diluted solution per well). Plates are covered with aluminum foil and incubated at 37° C. for 1-2 hours in an environment containing 5% CO2. After the incubation, the dye is emptied from the plates, and the cells are washed once with KRH buffer, and resuspended in KRH buffer.
# To measure the ability of a test compound to agonize or antagonize a calcium mobilization response in cells expressing capsaicin receptors to capsaicin or other vanilloid agonist, the EC50 of the agonist capsaicin is first determined. An additional 20 μl of KRH buffer and 1 μl DMSO is added to each well of cells, prepared as described above. 100 μl capsaicin in KRH buffer is automatically transferred by the FLIPR instrument to each well. Capsaicin-induced calcium mobilization is monitored using either FLUOROSKAN ASCENT (Labsystems; Franklin, Mass.) or FLIPR (fluorometric imaging plate reader system; Molecular Devices, Sunnyvale, Calif.) instruments. Data obtained between 30 and 60 seconds after agonist application are used to generate an 8-point concentration response curve, with final capsaicin concentrations of 1 nM to 3 μM. […] software (Synergy Software, Reading, Pa.) is used to fit the data to the equation: y=a*(1/(1+(b/x)^c)) to determine the 50% excitatory concentration (EC50) for the response. In this equation, y is the maximum fluorescence signal, x is the concentration of the agonist or antagonist (in this case, capsaicin), a is the Emax, b corresponds to the EC50 value and c is the Hill coefficient. Determination Agonist Activity
# Test compounds are dissolved in DMSO, diluted in 20 μl KRH buffer so that the final concentration of test compounds in the assay well is between 1 μM and 5 μM, and added to cells prepared as described above. The 96 well plates containing prepared cells and test compounds are incubated in the dark, at room temperature for 0.5 to 6 hours. It is important that the incubation not continue beyond 6 hours. Just prior to determining the fluorescence response, 100 μl capsaicin in KRH buffer at twice the EC50 concentration determined as described above is automatically added by the FLIPR instrument to each well of the 96 well plate for a final sample volume of 200 μl and a final capsaicin concentration equal to the EC50. The final concentration of test compounds in the assay wells is between 1 μM and 5 μM.
# T1 sequence (Q8NER1 whole entry): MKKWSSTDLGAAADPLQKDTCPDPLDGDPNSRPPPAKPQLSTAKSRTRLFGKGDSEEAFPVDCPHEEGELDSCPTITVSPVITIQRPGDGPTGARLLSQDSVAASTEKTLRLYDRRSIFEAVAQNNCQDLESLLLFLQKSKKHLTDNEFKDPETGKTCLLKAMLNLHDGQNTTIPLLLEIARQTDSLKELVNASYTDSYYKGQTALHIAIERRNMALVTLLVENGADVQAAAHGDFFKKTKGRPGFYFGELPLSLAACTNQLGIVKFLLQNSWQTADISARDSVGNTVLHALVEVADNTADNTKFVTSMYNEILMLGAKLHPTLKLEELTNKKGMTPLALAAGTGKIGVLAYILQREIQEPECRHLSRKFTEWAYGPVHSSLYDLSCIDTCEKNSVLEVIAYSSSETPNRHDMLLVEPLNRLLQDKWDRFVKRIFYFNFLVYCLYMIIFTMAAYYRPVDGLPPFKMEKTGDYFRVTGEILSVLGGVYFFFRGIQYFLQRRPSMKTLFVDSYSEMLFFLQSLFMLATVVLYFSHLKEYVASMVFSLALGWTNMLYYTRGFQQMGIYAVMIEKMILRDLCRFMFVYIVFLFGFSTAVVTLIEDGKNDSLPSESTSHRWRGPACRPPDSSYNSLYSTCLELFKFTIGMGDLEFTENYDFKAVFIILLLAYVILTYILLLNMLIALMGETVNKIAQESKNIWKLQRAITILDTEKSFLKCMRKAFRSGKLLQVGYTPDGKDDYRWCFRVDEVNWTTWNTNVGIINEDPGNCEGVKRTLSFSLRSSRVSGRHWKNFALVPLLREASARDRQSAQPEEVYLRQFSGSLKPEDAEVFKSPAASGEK
row,IC50 [nM],Structure (SMILES)
1,≤ 1000,"CN1CCN(c2nc(Nc3ccc(C(C)(C)C)cc3)nc(OCc3ccccc3C(F)(F)F)n2)CC1 [Compound 1, (4-tert-Butyl-phenyl)-[4-(4-methyl-piperazin-1-yl)-6-(2-trifluoromethyl-benzyloxy)-[1,3,5]triazine-2-yl]-amine]"
2,≤ 1000,"COc1ccccc1COc1nc(Cl)nc(Nc2ccc(C(C)(C)C)cc2)n1 [Compound 3, (4-tert-Butyl-phenyl)-[4-chloro-6-(2-methoxy-benzyloxy)-[1,3,5]triazin-2-yl]-amine]"
3,≤ 1000,"CC(C)(C)c1ccc(Nc2nc(Cl)nc(OCc3ccccc3C(F)(F)F)n2)cc1 [Compound 4, (4-tert-Butyl-phenyl)-[4-chloro-6-(2-trifluoromethyl-benzyloxy)-[1,3,5]triazin-2-yl]-amine]"
4,≤ 1000,"CC(C)(C)c1ccc(Nc2nc(Cl)nc(N3CCc4ccccc4C3)n2)cc1 [Compound 5, (4-tert-Butyl-phenyl)-[4-chloro-6-(3,4-dihydro-1H-isoquinolin-2-yl)-[1,3,5]triazin-2-yl]-amine]"
5,≤ 1000,"COc1cc2c(cc1OC)CN(c1nc(Cl)nc(Nc3ccc(C(C)(C)C)cc3)n1)CC2 [Compound 6, (4-tert-Butyl-phenyl)-[4-chloro-6-(6,7-dimethoxy-3,4-dihydro-1H-isoquinolin-2-yl)-[1,3,5]triazin-2-yl]-amine]"
6,≤ 1000,"COc1cc2c(cc1OC)CN(c1nc(Cl)nc(Nc3ccc(C(C)(C)C)cc3)n1)C(C)C2 (stereo not shown) [Compound 7, (4-tert-Butyl-phenyl)-[4-chloro-6-(6,7-dimethoxy-3-methyl-3,4-dihydro-1H-isoquinolin-2-yl)-[1,3,5]triazin-2-yl]-amine]"
7,≤ 1000,"CC(C)(C)c1ccc(Nc2cc(OCc3ccccc3C(F)(F)F)ncn2)cc1 [Compound 8, (4-tert-Butyl-phenyl)-[6-(2-trifluoromethyl-benzyloxy)-pyrimidin-4-yl]-amine]"
8,≤ 1000,"FC(F)(F)c1ccc(Nc2nc(OCc3ccccc3C(F)(F)F)nc(-c3ccccc3Cl)n2)cc1 [Compound 9, [4-(2-Chloro-phenyl)-6-(2-trifluoromethyl-benzyloxy)-[1,3,5]triazin-2-yl]-(4-trifluoromethyl-phenyl)-amine]"
9,≤ 1000,"FC(F)(F)c1ccc(Nc2nc(OCc3ccccc3C(F)(F)F)nc(-c3ccccc3C(F)(F)F)n2)cc1 [Compound 10, [4-(2-Trifluoromethyl-benzyloxy)-6-(2-trifluoromethyl-phenyl)-[1,3,5]triazin-2-yl]-(4-trifluoromethyl-phenyl)-amine]"
10,≤ 1000,"CC(C)(C)c1ccc(Nc2nc(OCc3ccccc3Cl)nc(OCc3ccccc3Cl)n2)cc1 [Compound 11, [4,6-Bis-(2-chloro-benzyloxy)-[1,3,5]triazin-2-yl]-(4-tert-butyl-phenyl)-amine]"
11,≤ 1000,"CC(C)(C)c1ccc(Nc2nc(OCc3ccccc3F)nc(OCc3ccccc3F)n2)cc1 [Compound 12, [4,6-Bis-(2-fluoro-benzyloxy)-[1,3,5]triazin-2-yl]-(4-tert-butyl-phenyl)-amine]"
12,≤ 1000,"COc1ccccc1COc1nc(Nc2ccc(C(C)(C)C)cc2)nc(OCc2ccccc2OC)n1 [Compound 13, [4,6-Bis-(2-methoxy-benzyloxy)-[1,3,5]triazin-2-yl]-(4-tert-butyl-phenyl)-amine]"
13,≤ 1000,"CC(C)(C)c1ccc(Nc2nc(OCc3ccccc3C(F)(F)F)nc(OCc3ccccc3C(F)(F)F)n2)cc1 [Compound 14, [4,6-Bis-(2-trifluoromethyl-benzyloxy)-[1,3,5]triazin-2-yl]-(4-tert-butyl-phenyl)-amine]"
14,≤ 1000,"FC(F)(F)c1ccc(Nc2nc(OCc3ccccc3C(F)(F)F)nc(OCc3ccccc3C(F)(F)F)n2)cc1 [Compound 15, [4,6-Bis-(2-trifluoromethyl-benzyloxy)-[1,3,5]triazin-2-yl]-(4-trifluoromethyl-phenyl)-amine]"
15,≤ 1000,"CC(C)(C)c1ccc(Nc2nc(OCc3ncccc3Cl)nc(OCc3ncccc3Cl)n2)cc1 [Compound 16, [4,6-Bis-(3-chloro-pyridin-2-ylmethoxy)-[1,3,5]triazin-2-yl]-(4-tert-butyl-phenyl)-amine]"
16,≤ 1000,"CC(C)(C)c1ccc(Nc2nc(OCc3ccccn3)nc(OCc3ccccn3)n2)cc1 [Compound 17, [4,6-Bis-(pyridin-2-ylmethoxy)-[1,3,5]triazin-2-yl]-(4-tert-butyl-phenyl)-amine]"
17,≤ 1000,"FC(F)(F)c1ccc(Nc2nc(Cl)nc(OCc3ccccc3C(F)(F)F)n2)cc1 [Compound 18, [4-Chloro-6-(2-trifluoromethyl-benzyloxy)-[1,3,5]triazin-2-yl]-(4-trifluoromethyl-phenyl)-amine]"
18,≤ 1000,"FC(F)(F)c1ccc(Nc2nc(OCc3ccccc3C(F)(F)F)nc(OC3CCCC3)n2)cc1 [Compound 19, [4-Cyclopentyloxy-6-(2-trifluoromethyl-benzyloxy)-[1,3,5]triazin-2-yl]-(4-trifluoromethyl-phenyl)-amine]"
19,≤ 1000,"CCOc1nc(Nc2ccc(C(F)(F)F)cc2)nc(OCc2ccccc2C(F)(F)F)n1 [Compound 20, [4-Ethoxy-6-(2-trifluoromethyl-benzyloxy)-[1,3,5]triazin-2-yl]-(4-trifluoromethyl-phenyl)-amine]"
20,≤ 1000,"FC(F)(F)c1ccc(Nc2nc(OCc3ccccc3C(F)(F)F)nc(N3CCOCC3)n2)cc1 [Compound 21, [4-Morpholin-4-yl-6-(2-trifluoromethyl-benzyloxy)-[1,3,5]triazin-2-yl]-(4-trifluoromethyl-phenyl)-amine]"
21,≤ 1000,"FC(F)(F)c1ccc(Nc2nc(OCc3ccccc3C(F)(F)F)nc(-c3ccccc3)n2)cc1 [Compound 22, [4-Phenyl-6-(2-trifluoromethyl-benzyloxy)-[1,3,5]triazin-2-yl]-(4-trifluoromethyl-phenyl)-amine]"
22,≤ 1000,"FC(F)(F)c1ccc(Nc2nc(OCc3ccccc3C(F)(F)F)nc(-c3cccnc3)n2)cc1 [Compound 23, [4-Pyridin-3-yl-6-(2-trifluoromethyl-benzyloxy)-[1,3,5]triazin-2-yl]-(4-trifluoromethyl-phenyl)-amine]"
23,≤ 1000,"CC(C)(O)CCNc1nc(Nc2ccc(C(F)(F)F)cc2)nc(OCc2ccccc2C(F)(F)F)n1 [Compound 24, 2-Methyl-4-[4-(2-trifluoromethyl-benzyloxy)-6-(4-trifluoromethyl-phenylamino)-[1,3,5]triazin-2-ylamino]-butan-2-ol]"
24,≤ 1000,"Oc1nc(Nc2ccc(C(F)(F)F)cc2)nc(OCc2ccccc2C(F)(F)F)n1 [Compound 25, 4-(2-Trifluoromethyl-benzyloxy)-6-(4-trifluoromethyl-phenylamino)-[1,3,5]triazin-2-ol]"
25,≤ 1000,"FC(F)(F)c1ccc(Nc2nc(NCCN3CCOCC3)nc(OCc3ccccc3C(F)(F)F)n2)cc1 [Compound 28, N-(2-Morpholin-4-yl-ethyl)-6-(2-trifluoromethyl-benzyloxy)-N′-(4-trifluoromethyl-phenyl)-[1,3,5]triazine-2,4-diamine]"
26,≤ 1000,"CC(C)CCNc1nc(Nc2ccc(C(F)(F)F)cc2)nc(OCc2ccccc2C(F)(F)F)n1 [Compound 29, N-(3-Methyl-butyl)-6-(2-trifluoromethyl-benzyloxy)-N′-(4-trifluoromethyl-phenyl)-[1,3,5]triazine-2,4-diamine]"
27,≤ 1000,"CC(C)(C)c1ccc(Nc2nc(N)nc(OCc3ccccc3Cl)n2)cc1 [Compound 30, N-(4-tert-Butyl-phenyl)-6-(2-chloro-benzyloxy)-[1,3,5]triazine-2,4-diamine]"
28,≤ 1000,"CC(C)(C)c1ccc(Nc2nc(N)nc(OCc3ccccc3F)n2)cc1 [Compound 31, N-(4-tert-Butyl-phenyl)-6-(2-fluoro-benzyloxy)-[1,3,5]triazine-2,4-diamine]"
